# Results from patent US8008506B2, “Indazole compounds” (priority 2008, dated 2011).
# Like-named read-outs stand apart in the source and are kept apart here.
# Experiments:
# [1] = molecular target: T1, human α1A adrenergic receptor (Homo sapiens, UniProt P35348); experiment: Test Example 4: human α1A adrenergic receptor agonist activity (Ca flux, Fura-2, transfected HEK293 cells); assay type: cell-based; details: for Emax: HEK293, read-out: α1A receptor I.A.; for α1A receptor I.A.: maximum response to norepinephrine taken as 100%
# T1 construct: expressed in transfected cells; host or cells: HEK293 cells, pcDNA3.1(−), hygromycin B selection
# T1 sequence (P35348 1-466): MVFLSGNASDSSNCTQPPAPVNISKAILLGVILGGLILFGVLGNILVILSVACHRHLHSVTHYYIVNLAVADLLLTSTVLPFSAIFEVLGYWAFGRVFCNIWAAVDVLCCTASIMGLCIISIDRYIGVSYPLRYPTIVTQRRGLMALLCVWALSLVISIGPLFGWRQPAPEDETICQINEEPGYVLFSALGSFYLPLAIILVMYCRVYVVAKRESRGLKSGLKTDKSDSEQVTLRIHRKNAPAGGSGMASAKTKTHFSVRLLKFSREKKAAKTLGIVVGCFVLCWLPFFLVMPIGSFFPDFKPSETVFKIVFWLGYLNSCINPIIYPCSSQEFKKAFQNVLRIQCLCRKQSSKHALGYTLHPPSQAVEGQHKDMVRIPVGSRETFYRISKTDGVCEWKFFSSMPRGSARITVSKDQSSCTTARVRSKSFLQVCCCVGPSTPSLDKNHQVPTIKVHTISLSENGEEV
# Procedure: Measurement of Human α1A Adrenergic Receptor Agonist Activity
# The measurement of human α1A adrenergic receptor agonist activity is carried out using HEK293 cells transfected with pcDNA3.1(−) (manufactured by Invitrogen, Inc.) to which human α1A gene has been inserted. These cells are cultured in DMEM medium containing 10% fetal bovine serum, 400 μg/ml hygromycin B (manufactured by Gibco BRL), 100 U/ml penicillin and 100 μg/ml streptomycin. […] The cells are loaded in a CO2 incubator for 30 minutes, and then are washed twice with the Assay Buffer to remove excess Fura-2AM. The cells are centrifuged, and then are prepared into a solution at 5×10^6 cells/ml with the Assay Buffer. Subsequently, the cells are dispensed on a 96-well plate (manufactured by Corning, Inc.) at a volume of 80 μl/well, and the plate is used as a cell plate. […] Subsequently, measurement of fluorescence intensity (excitation wavelength 340 nm and 380 nm, measurement wavelength 500 nm) is initiated at an interval of 2 seconds. After making measurements for about 30 seconds, 20 μl of the test sample from the sample plate is added to the cell plate, and measurements are further continued for 270 seconds. The Ca flux resulting from the test compound is calculated utilizing the difference between the maximum value of fluorescence intensity ratio at the wavelengths 340 nm and 380 nm after the addition of the test compound, and the fluorescence intensity ratio before the addition of the test compound, as the peak height.
# [2] = molecular target: T2, human β3 adrenergic receptor (Homo sapiens, UniProt P13945); experiment: Test Example 1-B: human β3 adrenergic receptor agonist activity (cAMP-Screen kit, transfected CHO cells, 96-well); assay type: cell-based; details: for Emax: CHO, read-out: β3 receptor I.A.; for EC50: Table 2, Test Example 1-B
# T2 construct: the full length human β3 gene is obtained from a human genomic library; expressed in transfected cells; host or cells: CHO (Chinese Hamster Ovary) cells, pcDNA3, geneticin selection
# Procedure: Measurement of Human β3 Adrenergic Receptor Agonist Activity
# (§1) The measurement of human β3 adrenergic receptor agonist activity is carried out using CHO (Chinese Hamster Ovary) cells transfected with pcDNA3 (manufactured by Invitrogen, Inc.) to which human β3 gene has been inserted. […] This human β3 cDNA fragment is used as a probe, and the full length human β3 gene is obtained from a human genomic library (manufactured by Clontech Laboratories, Inc.). The above cells are cultured in Ham's F-12 medium containing 10% fetal bovine serum and 400 μg/ml geneticin (manufactured by Invitrogen, Inc.). These cells are seeded on a 96-well plate to a concentration of 2×10^4 cells/well, and after being cultured for about 20 hours, the cells are left to stand in 80 μL of serum-free Ham's F-12 medium for 15 minutes. A test compound is initially dissolved in DMSO, and then is diluted stepwise with Ham's F-12 containing 100 mmol/L HEPES and 1 mmol/L isobutylmethylxanthine. 20 μL of the dilution is added to the cells. After the cells are cultured for 30 minutes, the medium is removed. 0.3. ml of the Assay/lysis Buffer included in cAMP-Screen kit (manufactured by Applied Biosystems, Inc.) is added to the cells, and the cells are incubated at 37° C. for 30 minutes. The resulting cell lysate is subjected to quantification of cAMP with the cAMP-Screen kit.
# [3] = molecular target: T3, human β1 adrenergic receptor (Homo sapiens, UniProt P08588); experiment: Test Example 2-B: human β1 adrenergic receptor agonist activity (method of Test Example 1-B); assay type: cell-based; details: for β1 receptor EC50: Table 2, Test Example 2-B; for Emax: read-out: β1 receptor I.A.
# T3 construct: expressed in transfected cells; host or cells: CHO (Chinese Hamster Ovary) cells, pcDNA3
# Procedure: as §1, with “kit. […] Measurement of Human β1 Adrenergic Receptor Agonist Activity” for “kit.”
# [4] = tested on: urinary bladder smooth muscle isolated from common marmoset; experiment: Test Example 7: relaxant activity on urinary bladder smooth muscle isolated from common marmoset; details: KCl 40 mmol/L contraction, papaverine 10^−4 mol/L relaxation taken as 100%
# Procedure: Common marmosets are (CLEA Japan, Inc.) exsanguinated to death, and then are subjected to laparotomy to isolate the urinary bladder therefrom. […] The strips are applied a resting tension of 1 g, and are equilibrated for at least 30 minutes. After the resting tension of the strips have been equilibrated, KCl at a final concentration of 40 mmol/L is repeatedly added to the organ bath, and it is confirmed that contraction due to KCl becomes almost constant. […] When the relaxation response at the maximum concentration of the test compound is completed, papaverine at a final concentration of 10^−4 mol/L is added, and the maximum relaxation response of each strip is determined.
# [5] = Table 1, Test Example 4, read-out: α1A receptor EC50
# [6] = Table 2, Test Example 4, read-out: α1A receptor EC50
# T2 sequence (P13945 whole entry): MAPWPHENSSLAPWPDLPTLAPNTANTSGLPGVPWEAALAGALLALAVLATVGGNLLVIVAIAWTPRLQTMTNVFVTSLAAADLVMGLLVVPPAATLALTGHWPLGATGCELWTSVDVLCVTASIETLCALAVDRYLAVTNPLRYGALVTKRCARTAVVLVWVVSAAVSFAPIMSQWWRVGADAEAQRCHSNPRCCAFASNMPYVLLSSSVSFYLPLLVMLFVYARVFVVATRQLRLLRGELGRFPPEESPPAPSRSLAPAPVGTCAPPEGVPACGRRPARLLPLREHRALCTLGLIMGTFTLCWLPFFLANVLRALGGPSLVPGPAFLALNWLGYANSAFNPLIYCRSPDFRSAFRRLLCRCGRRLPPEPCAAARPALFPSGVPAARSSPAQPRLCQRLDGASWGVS
# T3 sequence (P08588 whole entry): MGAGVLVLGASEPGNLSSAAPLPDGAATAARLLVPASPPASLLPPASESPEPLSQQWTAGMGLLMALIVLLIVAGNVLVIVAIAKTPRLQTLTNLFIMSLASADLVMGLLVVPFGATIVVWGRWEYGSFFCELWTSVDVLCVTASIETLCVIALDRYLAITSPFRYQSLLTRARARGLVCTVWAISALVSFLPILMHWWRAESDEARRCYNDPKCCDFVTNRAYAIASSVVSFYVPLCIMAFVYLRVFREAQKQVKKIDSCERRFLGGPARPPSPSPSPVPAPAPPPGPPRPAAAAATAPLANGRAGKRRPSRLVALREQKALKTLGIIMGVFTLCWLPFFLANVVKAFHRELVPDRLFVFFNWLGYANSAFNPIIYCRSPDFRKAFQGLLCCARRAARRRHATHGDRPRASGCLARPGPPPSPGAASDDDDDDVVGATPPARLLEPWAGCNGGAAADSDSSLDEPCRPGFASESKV
SMILES,EC50 [1] [nM],Emax [1] [%],Emax [2] [%],EC50 [2] [nM],β1 receptor EC50 [3],Emax [3] [%],relaxant activity (%) 10^−4 M [4] [%],relaxant activity (%) 10^−5 M [4] [%],"EC50 [1, 5] [nM]",α1A receptor I.A. ([1]; Table 2) [%],"EC50 [1, 6] [nM]","EC50 ([1]; read-out: α1A receptor EC50, Table 2, Test Example 4) [nM]"
"CS(=O)(=O)Nc1cccc([C@@H](O)CNCCOc2ccc3c(C(F)(F)F)n[nH]c3c2)c1 [Example 4, (R)-N-(3-(1-hydroxy-2-(2-(3-trifluoromethylindazol-6-yloxy)ethylamino)ethyl)phenyl)methanesulfonamide]",892,40,78,49,a),6.3,73.5,40.8,–,–,–,–
"CC(C)c1n[nH]c2cc(OCCNC[C@H](O)c3cccc(NS(C)(=O)=O)c3)ccc12 [Example 1, (R)-N-(3-(1-hydroxy-2-(2-(3-isopropylindazol-6-yloxy)ethylamino)ethyl)phenyl)methanesulfonamide]",> 2000,8,74,17,a),12,68.6,49.9,–,–,–,–
"CN(C)C(=O)CCc1n[nH]c2cc(OCCNC[C@H](O)c3cccc(NS(C)(=O)=O)c3)ccc12 [Example 5, (R)-3-(6-(2-(2-hydroxy-2-(3-(methylsulfonamido)phenyl)ethylamino)ethoxy)-indazol-3-yl)-N,N-dimethylpropanamide]",–,47,–,–,–,–,56.3,50.9,836,47,–,–
"CCc1n[nH]c2cc(OCCNC[C@H](O)c3ccc(Cl)c(NS(C)(=O)=O)c3)ccc12 [Example 9, (R)-N-(2-chloro-5-(2-(2-(3-ethylindazol-6-yloxy)ethylamino)-1-hydroxyethyl)phenyl)methanesulfonamide]",–,11,58,29,a),18,–,–,–,–,> 2000,–
"CCc1n[nH]c2cc(OCCNC[C@H](O)c3ccc(F)c(NS(C)(=O)=O)c3)ccc12 [Example 8, (R)-N-(5-(2-(2-(3-ethylindazol-6-yloxy)ethylamino)-1-hydroxyethyl)-2-fluorophenyl)methanesulfonamide]",–,5,61,17,a),15,–,–,–,–,> 2000,–
"COc1n[nH]c2cc(OCCNC[C@H](O)c3cccc(NS(=O)(=O)c4ccccc4)c3)ccc12 [Example 16, (R)-N-(3-(1-hydroxy-2-(2-(3-methoxyindazol-6-yloxy)ethylamino)ethyl)phenyl)benzenesulfonamide]",–,0,75,17,a),7,–,–,–,–,> 2000,–
"COCc1n[nH]c2cc(OCCNC[C@H](O)c3cccc(NS(C)(=O)=O)c3)ccc12 [Example 6, (R)-N-(3-(1-hydroxy-2-(2-(3-methoxymethylindazol-6-yloxy)ethylamino)ethyl)phenyl)methanesulfonamide]",–,20,–,–,–,–,42.6,35.3,> 2000,–,–,–
"CCc1n[nH]c2cc(OCCNC[C@H](O)c3cccc(NS(C)(=O)=O)c3)ccc12 [Example 2, (R)-N-(3-(1-hydroxy-2-(2-(3-ethylindazol-6-yloxy)ethylamino)ethyl)phenyl)methanesulfonamide]",855,24,76,17,a),5.8,57.8,43.4,–,24,–,855
"CS(=O)(=O)Nc1cc([C@@H](O)CNCCOc2ccc3c(C(F)(F)F)n[nH]c3c2)ccc1Cl [Example 11, (R)-N-(2-chloro-5-(1-hydroxy-2-(2-(3-(trifluoromethyl)indazol-6-yloxy)ethylamino)ethyl)phenyl)methanesulfonamide]",–,0,65,15,a),22,39.2,20.1,–,–,> 2000,–
"CCCc1n[nH]c2cc(OCCNC[C@H](O)c3cccc(NS(C)(=O)=O)c3)ccc12 [Example 3, (R)-N-(3-(1-hydroxy-2-(2-(3-propylindazol-6-yloxy)ethylamino)ethyl)phenyl)methanesulfonamide]",–,0,–,–,a),1,–,–,> 2000,0,> 2000,–
